Test results published in patent publication US10597388B2, “Pyridazinone herbicides” (FMC CORPORATION, priority 2014, dated 2020).

What was measured:
Assay type in all cases: in vivo
[1] = system: barnyardgrass (Echinochloa crus-galli); assay: Test A greenhouse herbicide test, pre- and postemergence
How it was run: (§1)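 Seeds in loam–sand blend received a preemergence directed soil spray; plants at 2–10 cm, one- to two-leaf stage, received postemergence sprays. Compounds in a non-phytotoxic solvent with surfactant. After about 10 d in a greenhouse, injury rated visually versus untreated controls on a 0–100 scale (100 = complete control).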

corn (Zea mays) = assay: as above; details: Postemergence; for Corn plant response rating: 0 to 100 scale, 0 is no effect, 100 is complete control
How it was run: as §1

[2] = system: foxtail, giant (giant foxtail, Setaria faberii); assay: as above
How it was run: as §1

kochia (Kochia scoparia) = assay: as above
How it was run: as §1

[3] = system: pigweed (Amaranthus retroflexus); assay: as above
How it was run: as §1

[4] = system: ragweed (common ragweed, Ambrosia elatior); assay: as above
How it was run: as §1

[5] = system: ryegrass, Italian (Italian ryegrass, Lolium multiflorum); assay: as above
How it was run: as §1

[6] = system: wheat (Triticum aestivum); assay: as above; details: Postemergence; for Wheat plant response rating: 0 to 100 scale, 0 is no effect, 100 is complete control
How it was run: as §1

[7] = system: blackgrass (Alopecurus myosuroides); assay: Test A greenhouse herbicide test, postemergence; details: for Blackgrass plant response rating: 0 to 100 scale, 0 is no effect, 100 is complete control
How it was run: (§2)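 Pot-grown plants (loam soil/sand blend), 2–10 cm tall at the one- to two-leaf stage, received postemergence sprays of formulated test chemical. After about 10 d in the greenhouse, injury was rated visually against untreated controls on a 0 (no effect) to 100 (complete control) scale.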

[8] = system: galium (catchweed bedstraw, Galium aparine); assay: Test A greenhouse herbicide test, postemergence; details: for Galium plant response rating: 0 to 100 scale, 0 is no effect, 100 is complete control
How it was run: as §2

[9] = system: barnyardgrass (Echinochloa crus-galli); assay: Test B flooded paddy test; details: 250 g ai/ha, Flood; visual rating on scale of 0 to 100 where 0 is no effect and 100 is complete control; 13 to 15 d after treatment
How it was run: (§3)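 Plants grown to the 2-leaf stage. At treatment, pots were flooded to 3 cm above the soil, compound was applied directly to the paddy water, and that depth was held throughout. After 13 to 15 d in the greenhouse, response was rated visually against controls on a 0 (no effect) to 100 (complete control) scale.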

[10] = system: ducksalad (Heteranthera limosa); assay: Test B flooded paddy test; details: 250 g ai/ha, Flood; visual rating on scale of 0 to 100 where 0 is no effect and 100 is complete control; 13 to 15 d after treatment
How it was run: as §3

rice (Oryza sativa) = assay: Test B flooded paddy test; details: 250 g ai/ha, Flood; visual rating on scale of 0 to 100 where 0 is no effect and 100 is complete control; 13 to 15 d after treatment
How it was run: as §3

[11] = system: sedge, umbrella (small-flower umbrella sedge, Cyperus difformis); assay: Test B flooded paddy test; details: 250 g ai/ha, Flood; visual rating on scale of 0 to 100 where 0 is no effect and 100 is complete control; 13 to 15 d after treatment
How it was run: as §3

[12] = Postemergence, 125 g ai/ha, 0 to 100 scale where 0 is no effect and 100 is complete control
[13] = Postemergence, 500 g ai/ha, 0 to 100 scale, 0 is no effect, 100 is complete control
[14] = Preemergence, 125 g ai/ha, 0 to 100 scale where 0 is no effect and 100 is complete control
[15] = Preemergence, 500 g ai/ha, 0 to 100 scale, 0 no effect, 100 complete control
[16] = 125 g ai/ha, 0 to 100 scale where 0 is no effect and 100 is complete control
[17] = Postemergence, 500 g ai/ha, visual rating after approx. 10 d, 0 to 100 scale (0 no effect, 100 complete control)
[18] = Preemergence, 500 g ai/ha, 0 to 100 scale where 0 is no effect and 100 is complete control
[19] = 500 g ai/ha, visual rating after approx. 10 d, 0 to 100 scale (0 no effect, 100 complete control)

Row | SMILES | Plant response rating, Barnyardgrass [1, 12] | Barnyardgrass plant response rating [1, 14] | Plant response rating, Corn (corn (Zea mays); [16]) | Plant response rating, Foxtail, Giant [2, 12] | Foxtail, Giant plant response rating [2, 14] | Plant response rating, Kochia (kochia (Kochia scoparia); [12]) | Kochia plant response rating (kochia (Kochia scoparia); [14]) | Plant response rating, Pigweed [3, 12] | Pigweed plant response rating [3, 14] | Plant response rating, Ragweed [4, 12] | Ragweed plant response rating [4, 14] | Plant response rating, Ryegrass, Italian [5, 12] | Ryegrass, Italian plant response rating [5, 14] | Plant response rating, Wheat [6, 16] | Plant response rating, Blackgrass [7, 16] | Plant response rating, Galium [8, 16] | Plant response rating, Barnyardgrass [9] | Plant response rating, Ducksalad [10] | Plant response rating, Rice (rice (Oryza sativa)) | Plant response rating, Sedge, Umbrella [11] | other results
1 | COc1ccc(-c2c(O)c(C)nn(C)c2=O)c2ccccc12 [Compound 58] | 0 | 0 | 0 | 0 | 0 | 20 | 20 | 0 | 0 | 0 | 70 | 60 | 70 | 0 | 20 | 70 | 0 | 0 | 0 | 0 | Barnyardgrass plant response rating [1, 13]: 0; Plant response rating, Barnyardgrass [1, 15]: 20; Corn plant response rating (corn (Zea mays); 500 g ai/ha): 0; Foxtail, Giant plant response rating [2, 13]: 10; Plant response rating, Foxtail, Giant [2, 15]: 0; Kochia plant response rating (kochia (Kochia scoparia); [13]): 90; Plant response rating, Kochia (kochia (Kochia scoparia); [15]): 80; Pigweed plant response rating [3, 13]: 20; Plant response rating, Pigweed [3, 15]: 20; Ragweed plant response rating [4, 13]: 60; Plant response rating, Ragweed [4, 15]: 80; Ryegrass, Italian plant response rating [5, 13]: 80; Plant response rating, Ryegrass, Italian [5, 15]: 100; Wheat plant response rating ([6]; 500 g ai/ha): 20; Blackgrass plant response rating ([7]; 500 g ai/ha): 50; Galium plant response rating ([8]; 500 g ai/ha): 100
2 | Cc1ccc2ccccc2c1-c1c(OC(=O)C(C)(C)C)c(C#N)nn(C)c1=O [Compound 128] | 50 | 50 | 0 | 50 | 80 | 0 | 0 | 70 | 90 | 10 | 70 | 20 | 10 | 0 | 0 | 40 | 0 | 30 | 0 | 0 | Plant response rating, Barnyardgrass [1, 17]: 80; Plant response rating, Barnyardgrass [1, 18]: 90; Plant response rating, Corn (corn (Zea mays); [19]): 0; Plant response rating, Foxtail, Giant [2, 17]: 70; Plant response rating, Foxtail, Giant [2, 18]: 90; Plant response rating, Kochia (kochia (Kochia scoparia); [17]): 0; Plant response rating, Kochia (kochia (Kochia scoparia); [18]): 0; Plant response rating, Pigweed [3, 17]: 90; Plant response rating, Pigweed [3, 18]: 100; Plant response rating, Ragweed [4, 17]: 30; Plant response rating, Ragweed [4, 18]: 70; Plant response rating, Ryegrass, Italian [5, 17]: 50; Plant response rating, Ryegrass, Italian [5, 18]: 30; Plant response rating, Wheat [6, 19]: 0; Plant response rating, Blackgrass [7, 19]: 20; Plant response rating, Galium [8, 19]: 70
3 | CCOc1ccc2cccc(-c3c(O)c(C)nn(C)c3=O)c2c1 [Compound 92] | 0 | 0 | 0 | 0 | 0 | 60 | 0 | 20 | 0 | 0 | 0 | 0 | 0 | 0 | 0 | 10 | 0 | 0 | 0 | 40 | Barnyardgrass plant response rating [1, 13]: 0; Plant response rating, Barnyardgrass [1, 18]: 0; Corn plant response rating (corn (Zea mays); 500 g ai/ha): 0; Foxtail, Giant plant response rating [2, 13]: 0; Plant response rating, Foxtail, Giant [2, 18]: 0; Kochia plant response rating (kochia (Kochia scoparia); [13]): 70; Plant response rating, Kochia (kochia (Kochia scoparia); [18]): 20; Pigweed plant response rating [3, 13]: 30; Plant response rating, Pigweed [3, 18]: 0; Ragweed plant response rating [4, 13]: 0; Plant response rating, Ragweed [4, 18]: 0; Ryegrass, Italian plant response rating [5, 13]: 0; Plant response rating, Ryegrass, Italian [5, 18]: 0; Wheat plant response rating ([6]; 500 g ai/ha): 0; Blackgrass plant response rating ([7]; 500 g ai/ha): 20; Galium plant response rating ([8]; 500 g ai/ha): 30
4 | Cc1sc2ccccc2c1-c1c(O)cnn(C)c1=O [Compound 48] | 10 | 0 | 0 | 50 | 0 | 70 | 0 | 60 | 30 | 0 | 10 | 50 | 20 | 0 | 0 | 90 | 0 | 0 | 0 | 0 | Barnyardgrass plant response rating [1, 13]: 50; Plant response rating, Barnyardgrass [1, 15]: 0; Corn plant response rating (corn (Zea mays); 500 g ai/ha): 0; Foxtail, Giant plant response rating [2, 13]: 60; Plant response rating, Foxtail, Giant [2, 15]: 10; Kochia plant response rating (kochia (Kochia scoparia); [13]): 80; Plant response rating, Kochia (kochia (Kochia scoparia); [15]): 10; Pigweed plant response rating [3, 13]: 70; Plant response rating, Pigweed [3, 15]: 30; Ragweed plant response rating [4, 13]: 20; Plant response rating, Ragweed [4, 15]: 60; Ryegrass, Italian plant response rating [5, 13]: 60; Plant response rating, Ryegrass, Italian [5, 15]: 60; Wheat plant response rating ([6]; 500 g ai/ha): 0; Blackgrass plant response rating ([7]; 500 g ai/ha): 30; Galium plant response rating ([8]; 500 g ai/ha): 90
